In brackets after ≈: the same amount, converted by molar mass.
Tests used:
[1] = test system: A. niger; test: agar disc diffusion, zone of inhibition; type: cell-based; details: Aspergillus niger, 48 h
Description: [The procedure below names another organism; the source lists this organism under the same test.] (§1) The in vitro antimicrobial screening effects of the compounds (3 and 5a–j) were individually tested against a panel of bacteria and fungi including Staphylococcus aureus (NCIM 5021), Bacillus subtilis (NCIM 2999), Pseudomonas aeruginosa (NCIM 5029), Escherichia coli (NCIM 2574), Candida. albicans (NCIM 3471), and Aspergillus flavus (NCIM 524). Microbial strains were cultured overnight at 37°C in nutrient and potato dextrose agar medium. All the pure microbial strains were obtained from National Chemical Laboratory (NCL), Pune, India.
(§2) The antibacterial activity of compounds was determined by agar disc diffusion method. Briefly, a suspension of tested bacterial strains was spread on the nutrient agar medium and potato dextrose agar for fungi. The discs (6 mm in diameter) impregnated with test chemicals each dissolved in concentration (100 μg/mL in DMSO) were placed on the inoculated agar and these plates were kept at 4°C for 2 h. The plate was incubated at 37°C for 24 h in case of bacteria and 48 h at 28°C in case of fungi. streptomycin (10 μg/disc) and fluconazole (10 μg/disc) were used as the standards for antibacterial and antifungal activity, respectively. All the samples were performed in triplicate and the zone of inhibition was measured in millimeters.

[2] = test system: Aspergillus flavus (NCIM 524); test: agar disc diffusion, zone of inhibition; type: cell-based; details: Aspergillus flavus, NCIM524, 48 h
Description: as §1, §2

[3] = test system: Bacillus subtilis (NCIM 2999); test: agar disc diffusion, zone of inhibition; type: cell-based; details: Bacillus subtilis, NCIM2999, 24 h
Description: as §1, §2

[4] = test system: Escherichia coli (NCIM 2574); test: agar disc diffusion, zone of inhibition; type: cell-based; details: Escherichia coli, NCIM2574, 24 h
Description: as §1, §2

[5] = test system: Pseudomonas aeruginosa (NCIM 5029); test: agar disc diffusion, zone of inhibition; type: cell-based; details: Pseudomonas aeruginosa, NCIM5029, 24 h
Description: as §1, §2

[6] = test system: Staphylococcus aureus (NCIM 5021); test: agar disc diffusion, zone of inhibition; type: cell-based; details: Staphylococcus aureus, NCIM5021, 24 h
Description: as §1, §2

[7] = test system: A. niger; test: minimum inhibitory concentration by dilution method; type: cell-based; details: Aspergillus niger
Description: [The procedure below names another organism; the source lists this organism under the same test.] as §1
(§3) The minimum inhibitory concentration of the synthesized compounds was determined by dilution method. The compounds were dissolved and then diluted using DMSO; two-fold serial concentrations of the compounds were employed to determine the MIC. In this method, the test concentrations of chemically synthesized compounds were made from 5 to 125 μg/mL.

[8] = test system: Aspergillus flavus (NCIM 524); test: as above; type: cell-based; details: Aspergillus flavus, NCIM524
Description: as §1, §3

[9] = test system: Escherichia coli (NCIM 2574); test: as above; type: cell-based; details: Escherichia coli, NCIM2574
Description: as §1, §3

[10] = test system: Pseudomonas aeruginosa (NCIM 5029); test: as above; type: cell-based; details: Pseudomonas aeruginosa, NCIM5029
Description: as §1, §3

[11] = DPPH free radical scavenging activity; details: DPPH 0.1 mM, absorbance at 517 nm; triplicate, mean ± SD
Description: The capacity to scavenge the stable free radical 2,2-diphenyl-1-picrylhydrazyl (DPPH) was monitored according to the Blois method. The test samples (10–100 μL) were mixed with 1 mL of DPPH (0.1 mM) solution and filled up with methanol to a final volume of 4 mL. Absorbance of the resulting solution was measured at 517 nm in a visible spectrophotometer (Model 166, Systronics, India). The free radical scavenging rate of the reaction solution was calculated as a percentage (%) of DPPH decolouration using the equation (1) I(%)=(Ablank−Asample/Ablank)×100, where A blank is the absorbance of the control reaction mixture excluding the test compounds, and A sample is the absorbance of the test compounds. Radical scavenging potential was expressed as IC50 value, which represents the sample concentration at which 50% of the DPPH radicals were scavenged. Tests were carried out in triplicate and the results were expressed as mean values ± standard deviations.
DPPH radical scavenging activity evaluation is a standard assay in antioxidant activity studies and offers a rapid technique for screening the radical scavenging activity of specific compounds [24]. The free radical scavenging activity of newly synthesized compounds was tested by their ability to bleach the stable radical DPPH. The activity was monitored by following the absorption at 517 nm in a visible spectrophotometer. In the presence of any free radical scavenger, this odd electron pairs up and causes the diminishing of absorption band which is proportional to the number of electrons taken up. The activity was studied at different concentrations for each compound. […] Resulting from a color change from purple to yellow the absorbance decreased when the antioxidant molecule can quench DPPH free radical through donation of hydrogen atom or by electron donating to form a stable DPPH molecule.

[12] = molecular target: T1, bovine serum albumin (BSA) (Bos taurus, UniProt P02769); test: fluorescence quenching of BSA, binding parameters; details: for n (number of binding sites) / K sv (Stern-Volmer quenching constant) / K q (quenching rate constant) / shift of BSA fluorescence emission maximum wavelength: 298 K; for K sv (Stern-Volmer quenching constant): BSA 1.00 × 10^−5 mol L^−1, Tris-HCl pH 7.4; for K q (quenching rate constant): τ0 = 10^−8 s; for shift of BSA fluorescence emission maximum wavelength: excitation 280 nm, emission around 340 nm
T1 construct: Bovine serum albumin (BSA), one of the major components in plasma protein; purchased Sigma Aldrich Bangalore
Description: All the chemicals and solvents were of AR grade. Solvents were used as supplied by commercial sources without any further purification. BSA (essentially fatty-acid-free) was purchased from Sigma Aldrich Bangalore and stored in refrigerator at 4.0°C. BSA solution was prepared in the Tris-HCl buffer solution (0.05 mol L^−1 Tris, 0.15 mol L^−1 NaCl, pH 7.4) and it was kept in the dark at 298 K. The compounds were prepared as stock solutions using DMF. All other reagents were of analytical reagent grade, and double-distilled water was used during the experiment.
For each of the […] active compounds (5a, 5c, 5g, 5h, 5i, and 5j), the binding parameters with BSA molecules were measured by fluorescence spectroscopy. A solution (2.5 mL) containing 1.00 × 10^−5 mol L^−1 BSA was titrated by successive additions of 1.00 × 10^−3 mol L^−1 NABP stock solution and the concentration of NABP varied from 0 to 3.0 × 10^−5 mol L^−1 (a–g). Titrations were done manually by using microinjector. Fluorescence intensity was measured (excitation at 280 nm and emission at 340 nm). All experiments were performed at 298 K.
In order to investigate the quenching mechanism, the fluorescence quenching data K 0 and n were analyzed by the Stern-Volmer equation (2): (2) F0/F=1+Ksv[Q]=1+Kqτ0[Q], where F 0 and F denote the steady-state fluorescence intensities in the absence and in the presence of quencher, respectively, K 0 is binding constant of BSA, [Q] is the equilibrium concentration of the quencher, and n is the number of binding sites. The average lifetime, τ 0 of the molecule without quencher is 10^−8 s.
When the quenching mechanism is static, the binding parameters between BSA and compounds can be determined using (3): (3) log(F0−F)/F=log Ka+n log[Q].
The plot of log[(F 0 − F)/F] versus log[NABP], binding constant K a, and binding sites n were calculated from the intercept and slope. […] The value of n approximately equaled 1.

T1 sequence (P02769 25-607): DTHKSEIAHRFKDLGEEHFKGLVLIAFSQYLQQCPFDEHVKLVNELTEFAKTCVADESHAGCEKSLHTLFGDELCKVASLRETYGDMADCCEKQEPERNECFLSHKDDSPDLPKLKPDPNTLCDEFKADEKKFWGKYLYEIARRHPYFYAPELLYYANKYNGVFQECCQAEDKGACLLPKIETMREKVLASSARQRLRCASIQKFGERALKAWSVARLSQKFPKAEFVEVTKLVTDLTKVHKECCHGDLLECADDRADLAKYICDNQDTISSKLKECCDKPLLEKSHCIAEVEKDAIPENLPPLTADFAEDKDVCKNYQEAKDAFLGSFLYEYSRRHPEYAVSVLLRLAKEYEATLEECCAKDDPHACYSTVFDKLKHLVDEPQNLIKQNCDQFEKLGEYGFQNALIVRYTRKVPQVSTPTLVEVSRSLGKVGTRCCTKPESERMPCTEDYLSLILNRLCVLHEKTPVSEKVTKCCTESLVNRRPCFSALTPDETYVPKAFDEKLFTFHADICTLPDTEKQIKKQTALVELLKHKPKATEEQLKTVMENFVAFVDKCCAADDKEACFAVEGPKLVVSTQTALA

Compound | zone of inhibition at 100 µg/mL [1] [mm] | zone of inhibition at 100 µg/mL [2] [mm] | zone of inhibition at 100 µg/mL [3] [mm] | zone of inhibition at 100 µg/mL [4] [mm] | zone of inhibition at 100 µg/mL [5] [mm] | zone of inhibition at 100 µg/mL [6] [mm] | MIC [7] [µg/mL] | MIC [8] [µg/mL] | MIC [9] [µg/mL] | MIC [10] [µg/mL] | IC50 DPPH [11] [µg/mL] | Kd [12] [nM] | n (number of binding sites) [12] | K sv (Stern-Volmer quenching constant) [12] [L/mol] | K q (quenching rate constant) [12] [M⁻¹ s⁻¹] | shift of BSA fluorescence emission maximum wavelength [12]
CC(=O)N(C(=O)c1ccccc1)c1ccc(N=Cc2cc3ccccc3o2)cc1 [Compound 5c, N-acetyl-N -(4-((benzofuran-2-ylmethylene)amino)phenyl)benzamide] | 9 | 15 | 10 | 15 | 12 | 11 | 40 (≈ 105 µM) | 40 (≈ 105 µM) | 50 (≈ 131 µM) | 50 (≈ 131 µM) | 61.7 ± 0.55 (≈ 161 µM) | 38600 | 0.855 | 19300 | 1.93e+12 | red shift
CC(=O)N(C(=O)c1cc(F)ccc1F)c1ccc(N=Cc2cc3ccccc3o2)cc1 [Compound 5a, N-acetyl-N-(4-((benzofuran-2-ylmethylene)amino)phenyl)-2,5-difluorobenzamide] | 11 | 10.4 | 16 | 12 | 14 | 11 | 15 (≈ 35.9 µM) | 15 (≈ 35.9 µM) | 25 (≈ 59.8 µM) | 25 (≈ 59.8 µM) | 97.5 ± 0.37 (≈ 233 µM) | 1900 | 1.180 | 99600 | 9.96e+12 | slight blue shift
COc1ccc(C(=O)N(C(C)=O)c2ccc(N=Cc3cc4ccccc4o3)cc2)cc1 [Compound 5i, N-acetyl-N-(4-(benzofuran-2-ylmethyleneamino)phenyl)-4-methoxybenzamide] | 10 | 14 | 10 | 11 | 13 | 14 | 35 (≈ 84.9 µM) | 30 (≈ 72.7 µM) | 30 (≈ 72.7 µM) | 35 (≈ 84.9 µM) | 18.5 ± 0.17 (≈ 44.9 µM) | 1570 | 1.208 | 74000 | 7.4e+12 | slight blue shift

— publication PMC3767324, “Synthesis, Characterization, and BSA Binding Studies of Some New Benzamides Related to Schiff Base” (ISRN Organic Chemistry, 2013)
